Reference: patent EP0041021A2, “Cyclopropane carboxylic acid derivatives, their preparation, their use against parasites in plants and animals, their compositions and their intermediates” (ROUSSEL-UCLAF, priority 1980, dated 1981)

Experiments:
[1] = test system: moustiques Culex pipiens; experiment: Insecticidal activity on Culex pipiens mosquitoes, fumigant coil; format: in vivo; details: fumigant coil, 0,60% active ingredient by weight of coil
Method: Exemple 6 : Etude de l'activité insecticide. sur moustiques Culex pipiens, du composé ce l'exemple 1 utilisé sous forme de serpentin fumigène.
Des supports neutres de serpentins fumigènes sont imprégnés de matière active en solution dans l'acétone. On lâche dans un cylindre fermé, en verre, de 13,50 dm3, 20 moustiques femelles agées de 4 à 5 jours et intrcduit, pendant 2 minutes, un serpentin fumigène se consumant à une extrémité. On effectue le contrôle de knock-down toutes les minutes et arrête 1.essai 5 minutes après que tous les insectes aient été abattus.

[2] = test system: mouche domestique; experiment: Knock-down activity on housefly, direct spray in Kearns and March cylinder; format: in vivo; details: acetone (5%) + Isopar L
Method: Exemple 4 : Etude de l'activité de choc sur mouche domestique.
Les insectes tests sont des mouches domestiques femelles âgées de 4 à 5 jours. On opère par pulvérisation directe en cylindre de Kearns et March en utilisant comme solvant un mélange d'acétone (5%) et d'Isopar L (solvant pétrolier) (quantité de solvant utilisée 2 ml en une seconde). On utilise 50 insectes par dose. On effectue les contrôles toutes les minutes jusqu'à 10 minutes, puis à 15 minutes et l'on détermine le KT 50 par les méthodes habituelles.

## C=CCC1=C(C)[C@@H](OC(=O)[C@@H]2[C@H](/C=C\C(=O)OC)C2(C)C)CC1=O [Exemple 1, (R cis ΔZ) 2,2-diméthl-3/ 3-méthoxy-oxo-1-propenyl/cyclopropane carboxylatede (1S) 2-méthyl-4-oxo 3-(2-propenyl)-2-cyclopenten-1-yle]
[1]
  effet létal: 98,3%
[1]; 20 female mosquitoes, 13,50 dm3 cylinder
  ET 50: 5,42 mn
[2]; concentration 0,5 g/litre
  KT 50: 1,26 mn
[2]; concentration 0,25 g/litre
  KT 50: 2,02 mn
